Measured values taken from ChEMBL document CHEMBL5728884, “Kinase inhibitors and uses thereof” (2021).

Biological target: T1, Receptor-interacting serine/threonine-protein kinase 1 (Homo sapiens, UniProt Q13546)
T1 sequence (Q13546 whole entry): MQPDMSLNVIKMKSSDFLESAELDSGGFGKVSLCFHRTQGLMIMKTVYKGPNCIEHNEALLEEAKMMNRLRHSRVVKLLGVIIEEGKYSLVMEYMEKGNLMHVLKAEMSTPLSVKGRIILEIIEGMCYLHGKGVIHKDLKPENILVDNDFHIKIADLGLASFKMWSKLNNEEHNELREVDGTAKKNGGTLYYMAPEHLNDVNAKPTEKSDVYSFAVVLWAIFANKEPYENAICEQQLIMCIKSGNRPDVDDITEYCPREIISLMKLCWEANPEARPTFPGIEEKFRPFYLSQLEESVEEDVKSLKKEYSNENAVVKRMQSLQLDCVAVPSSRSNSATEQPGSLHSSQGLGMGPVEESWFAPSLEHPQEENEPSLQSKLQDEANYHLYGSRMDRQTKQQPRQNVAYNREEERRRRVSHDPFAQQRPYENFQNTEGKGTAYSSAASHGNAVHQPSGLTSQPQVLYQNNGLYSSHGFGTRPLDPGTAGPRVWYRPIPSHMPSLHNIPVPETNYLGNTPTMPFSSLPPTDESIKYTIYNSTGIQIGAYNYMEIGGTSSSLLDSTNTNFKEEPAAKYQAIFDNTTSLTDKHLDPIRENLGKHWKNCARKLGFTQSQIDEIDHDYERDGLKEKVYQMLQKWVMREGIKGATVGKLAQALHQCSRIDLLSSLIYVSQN
Test: Fluorescent Polarization Binding (FP Binding) Assay: Test compounds were serially diluted in DMSO at 100 fold final concentrations in the assay (1% DMSO final). In each well of a 384-well Plate were dispensed 0.1 μL of compound solution (or DMSO for controls) followed by 5 μL of GST-hRIPK1 (8-327) at twice the final concentrations in assay buffer (50 mM HEPES pH 7.5, 10 mM NaCl, 50 mM MgCl2, 0.02% CHAPS, 0.5 mM DTT and 0.01% Pluronic F127). For negative control the enzyme addition was replaced by assay buffer only.After addition of 5 μL of fluorescentlabeled ligand at twice the final concentrations in assay buffer, the plate was incubated at RT for […]. At the end, the binding was measured as FP value with the Envision (PerkinElmer) plate reader using filter for an excitation λ=531 nm FP and an emission λ=595 nm FP (S & P-pol). GST-hRIPK1 (8-327) enzyme was produced via Baculovirus expression.

SMILES | IC50 [nM]
Cc1nc(N2CCC(F)(C(=O)N3CCOc4c(C#N)cncc4C3)CC2)ncc1F | < 100
CC1(C(=O)N2CCOc3ccncc3C2)CCN(c2ncc(F)cn2)CC1(F)F (configuration not stated) | < 100
